# pKd: −log10 of the molar value. “And” between values parts separate entries of the source, which are not always exact repeats. Identical values can stand only once. Like-named read-outs stand apart in the source and are kept apart here.
# Tests used:
# [1] = tested on: P. falciparum Dd2-2D4; assay: P. falciparum asexual blood stage (ABS) growth assay, SYBR Green, 72 h, wild-type parasites; assay type: cell-based, Plasmodium falciparum
# [2] = tested on: P. falciparum Dd2-2D4 NCP26 selections S1-3; assay: ABS growth assay on bulk populations and clones from NCP26 resistance selections S1-3; assay type: cell-based, Plasmodium falciparum; details: for Fold-change Resistance: independent experiments; for EC50: Plasmodium falciparum
# [3] = target: T1, HsProRS (Homo sapiens, UniProt P07814); assay: TR-FRET ligand displacement assay with tracer MAT379 (CoraFluor-1-Halo and anti-His6 antibody formats); assay type: binding; set-up: made in house; host or cells: E. coli SoluBL-21; details: for normalized TR-FRET signal (Fig 2k): 15 pM HT-HsProRS; for normalized TR-FRET signal (dose-response replicates): SI Fig 15, titrating, listed as ProSA (25)
# [4] = target: T1, HsProRS; details: ref Heacock et al.; cited from earlier work
# [5] = target: T2, HT-PfcProRS (Plasmodium falciparum, UniProt Q8I5R7); assay: biochemical
# T2 sequence (Q8I5R7 249-746): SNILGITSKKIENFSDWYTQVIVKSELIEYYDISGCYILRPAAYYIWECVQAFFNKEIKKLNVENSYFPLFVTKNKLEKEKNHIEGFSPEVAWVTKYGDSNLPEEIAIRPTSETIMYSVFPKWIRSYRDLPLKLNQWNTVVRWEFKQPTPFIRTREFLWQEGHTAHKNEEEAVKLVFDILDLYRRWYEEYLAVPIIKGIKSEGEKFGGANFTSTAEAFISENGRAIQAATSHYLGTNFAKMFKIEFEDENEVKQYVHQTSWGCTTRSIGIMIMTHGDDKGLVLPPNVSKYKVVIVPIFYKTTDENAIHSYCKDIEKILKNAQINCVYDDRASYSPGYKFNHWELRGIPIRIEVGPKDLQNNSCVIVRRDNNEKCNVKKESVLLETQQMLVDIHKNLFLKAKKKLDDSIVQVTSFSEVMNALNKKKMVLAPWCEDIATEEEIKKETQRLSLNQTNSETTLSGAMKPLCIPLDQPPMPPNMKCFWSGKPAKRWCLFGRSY
# Method: (§1) A Multidrop Combi Reagent Dispenser (Thermo Fisher Scientific) was used to dispense 20 μL of 2× protein solution into each well. […] Plates were mixed on an Ika MTS 2/4 Digital Microtiter Shaker at 750 rpm for 2 min, centrifuged at 1000 × g at 25 °C for 1 min, and allowed to equilibrate for 2 h at room temperature before TR-FRET measurements were taken.
# (§2) PRISM (V. 8.4.3–9.1.0, GraphPad) was used to perform non-linear regression analysis (log(inhibitor) vs. response–Variable slope (four parameters)), plot dose-response curves, and calculate IC50 values. The Cheng–Prusoff equation was used to convert IC50 to KD values (Eq. (4)):4 KD=IC50/1+[MAT379]/KD,MAT379
# [6] = target: T3, HT-HsProRS (Homo sapiens, UniProt P07814); details: replicates 1-4
# T3 sequence (P07814 996-1512): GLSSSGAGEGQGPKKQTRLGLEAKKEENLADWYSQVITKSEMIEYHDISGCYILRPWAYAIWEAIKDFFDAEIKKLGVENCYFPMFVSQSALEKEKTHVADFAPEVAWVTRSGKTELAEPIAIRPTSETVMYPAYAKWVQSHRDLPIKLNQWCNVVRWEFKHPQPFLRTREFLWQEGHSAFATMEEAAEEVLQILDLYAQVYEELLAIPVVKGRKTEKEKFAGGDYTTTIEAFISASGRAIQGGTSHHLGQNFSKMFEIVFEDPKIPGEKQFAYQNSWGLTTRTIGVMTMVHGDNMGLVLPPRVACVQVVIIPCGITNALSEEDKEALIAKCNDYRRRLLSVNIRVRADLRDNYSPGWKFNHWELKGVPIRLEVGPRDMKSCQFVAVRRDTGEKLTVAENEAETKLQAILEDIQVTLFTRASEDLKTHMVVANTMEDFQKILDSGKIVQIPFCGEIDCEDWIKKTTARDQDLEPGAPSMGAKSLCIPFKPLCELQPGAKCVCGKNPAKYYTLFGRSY
# Method: as §1, §2
# [7] = target: T2, HT-PfcProRS
# Method: as §1, §2
# [8] = target: T3, HT-HsProRS; assay: biochemical
# Method: as §1, §2
smiles,measurement,setting,value
C[C@H]1[C@@H](O)O[C@@H]2O[C@@]3(C)CC[C@H]4[C@H](C)CC[C@@H]1[C@@]24OO3 [Dihydroartemesinin (DHA)],Fold-change Resistance,"[1]; Dd2-2D4, independent experiments",0.78 and 1.22 and 1
same,Fold-change Resistance,[2]; S1 - Clone A8,0.68 and 0.97
same,Fold-change Resistance,[2]; S2 - Clone B9,2.04
same,Fold-change Resistance,[2]; S3 - Clone B3,0.71 and 0.6
"Nc1ncnc2c1ncn2[C@@H]1O[C@H](COS(=O)(=O)NC(=O)[C@@H]2CCCN2)[C@@H](O)[C@H]1O [ProSA, reference compound]",EC50,"[1]; Plasmodium falciparum, DD2, SI Fig 16b, values on -log scale, read-out: ABS - Dd2-2D4 (converted)",0.151 µM
same,EC50,"[2]; DD2, cell line S1 - Clone A8, read-out: EC50 [nM] mean",258 nM
same,EC50,"[2]; DD2, cell line S2 - Clone A3, read-out: EC50 [nM] mean",209 nM
same,EC50,"[2]; DD2, cell line S2 - Clone B9, read-out: EC50 [nM] mean",267 nM
same,EC50,"[2]; DD2, cell line S2 - Clone C5, read-out: EC50 [nM] mean",243 nM
same,EC50,"[2]; DD2, cell line S3 - Clone B3, read-out: EC50 [nM] mean",593 nM
same,EC50,"[2]; DD2, cell line S3 - Clone B7, read-out: EC50 [nM] mean",909 nM
same,EC50,"[2]; DD2, read-out: EC50 [nM] mean, cell line S3 - Clone B2",838 nM
same,normalized TR-FRET signal (Fig 2k),[3]; Log[inhibitor] (M) -10.319,9.27E-01 and 5.96E-01 and 5.68E-01 and 6.24E-01 and 7.95E-01 and 4.77E-01
same,normalized TR-FRET signal (Fig 2k),[3]; Log[inhibitor] (M) -10.921,1.19E+00 and 1.45E+00 and 8.99E-01 and 1.44E+00
same,normalized TR-FRET signal (Fig 2k),[3]; Log[inhibitor] (M) -11.098,1.29E+00 and 1.17E+00 and 7.99E-01 and 9.06E-01
same,normalized TR-FRET signal (Fig 2i),[3]; Log[inhibitor] (M) -8.208,2.86E-01 and 2.69E-01 and 2.23E-01
same,normalized TR-FRET signal (Fig 2j),[3]; Log[inhibitor] (M) -8.208,2.20E-01 and 2.14E-01 and 2.31E-01
same,normalized TR-FRET signal (Fig 2i),[3]; Log[inhibitor] (M) -8.509,5.48E-01 and 5.47E-01 and 6.11E-01
same,normalized TR-FRET signal (Fig 2j),[3]; Log[inhibitor] (M) -8.509,6.99E-01 and 6.28E-01 and 5.28E-01
same,normalized TR-FRET signal (Fig 2i),[3]; Log[inhibitor] (M) -8.796,8.53E-01 and 8.04E-01 and 8.09E-01
same,normalized TR-FRET signal (Fig 2j),[3]; Log[inhibitor] (M) -8.796,7.16E-01 and 7.19E-01 and 8.75E-01
same,normalized TR-FRET signal (Fig 2i),[3]; Log[inhibitor] (M) -9.108,9.05E-01 and 8.48E-01 and 8.77E-01
same,normalized TR-FRET signal (Fig 2j),[3]; Log[inhibitor] (M) -9.108,8.43E-01 and 8.74E-01 and 8.91E-01
same,normalized TR-FRET signal (Fig 2i),[3]; Log[inhibitor] (M) -9.409,8.95E-01
same,normalized TR-FRET signal (Fig 2j),[3]; Log[inhibitor] (M) -10.602,8.90E-01
same,normalized TR-FRET signal (dose-response replicates),[3]; Log[inhibitor] (M) -7.601,-6.47E-02 and -3.87E-03 and 4.40E-03
same,normalized TR-FRET signal (dose-response replicates),[3]; Log[inhibitor] (M) -7.904,4.29E-02 and -1.08E-01 and 6.52E-02
same,normalized TR-FRET signal (dose-response replicates),[3]; Log[inhibitor] (M) -8.208,2.09E-01 and 4.52E-01 and 3.79E-01
same,normalized TR-FRET signal (dose-response replicates),[3]; Log[inhibitor] (M) -8.509,6.59E-01 and 7.25E-01 and 6.81E-01
same,normalized TR-FRET signal (dose-response replicates),[3]; Log[inhibitor] (M) -8.796,8.90E-01 and 6.94E-01 and 8.02E-01
same,normalized TR-FRET signal (dose-response replicates),[3]; Log[inhibitor] (M) -9.108,8.78E-01 and 8.82E-01
same,normalized TR-FRET signal (dose-response replicates),[3]; Log[inhibitor] (M) -10.301,9.09E-01
same,normalized TR-FRET signal (dose-response replicates),[3]; Log[inhibitor] (M) -10.602,1.29E+00
same,normalized TR-FRET signal (dose-response replicates),[3]; Log[inhibitor] (M) -11,9.02E-01
O=C(O)[C@@H]1CCCN1 [proline],Km,[4],180 µM
same,pKd,[5],3.34
same,Proline - […] HT-HsProRS - 1000nM MAT379,[6]; Log[Substrate] (M) -1.000,5.08E-02 and 1.93E-02 and 4.05E-02 and 1.78E-02
same,Proline - […] HT-HsProRS - 1000nM MAT379,[6]; Log[Substrate] (M) -1.301,6.44E-02 and 4.43E-02 and 5.23E-02 and 4.24E-02
same,Proline - […] HT-HsProRS - 1000nM MAT379,[6]; Log[Substrate] (M) -1.602,7.04E-02 and 4.04E-02 and 8.19E-02 and 3.22E-02
same,Proline - […] HT-HsProRS - 1000nM MAT379,[6]; Log[Substrate] (M) -1.903,1.06E-01 and 8.64E-02 and 1.07E-01 and 6.69E-02
same,Proline - […] HT-HsProRS - 1000nM MAT379,[6]; Log[Substrate] (M) -2.204,7.48E-02 and 1.05E-01 and 9.62E-02 and 1.28E-01
same,Proline - […] HT-HsProRS - 1000nM MAT379,[6]; Log[Substrate] (M) -2.505,7.61E-02 and 5.21E-02 and 2.93E-02 and 5.48E-02
same,Proline - […] HT-HsProRS - 1000nM MAT379,[6]; Log[Substrate] (M) -2.806,2.57E-02 and 8.53E-02 and 3.59E-02 and 4.74E-02
same,Proline - […] HT-HsProRS - 1000nM MAT379,[6]; Log[Substrate] (M) -3.107,9.60E-02 and 9.41E-02 and 9.82E-02 and 9.09E-02
same,Proline - […] HT-HsProRS - 1000nM MAT379,[6]; Log[Substrate] (M) -3.408,8.87E-02 and 1.50E-01 and 1.08E-01 and 8.19E-02
same,Proline - […] HT-HsProRS - 1000nM MAT379,[6]; Log[Substrate] (M) -3.709,1.42E-01 and 1.36E-01 and 1.15E-01 and 1.26E-01
same,Proline - […] HT-HsProRS - 1000nM MAT379,[6]; Log[Substrate] (M) -4.010,2.43E-01 and 1.82E-01 and 1.50E-01 and 1.67E-01
same,Proline - […] HT-HsProRS - 1000nM MAT379,[6]; Log[Substrate] (M) -4.311,2.57E-01 and 2.23E-01 and 2.59E-01 and 1.99E-01
same,Proline - […] HT-HsProRS - 1000nM MAT379,[6]; Log[Substrate] (M) -4.612,2.84E-01 and 3.36E-01 and 2.90E-01 and 3.09E-01
same,Proline - […] HT-HsProRS - 1000nM MAT379,[6]; Log[Substrate] (M) -4.913,3.43E-01 and 3.30E-01 and 3.37E-01 and 3.11E-01
same,Proline - […] HT-HsProRS - 1000nM MAT379,[6]; Log[Substrate] (M) -5.214,3.51E-01 and 3.56E-01 and 3.15E-01 and 3.55E-01
same,Proline - […] HT-HsProRS - 1000nM MAT379,[6]; Log[Substrate] (M) -5.515,4.26E-01 and 4.08E-01 and 4.22E-01 and 4.16E-01
same,Proline - […] HT-HsProRS - 1000nM MAT379,[6]; Log[Substrate] (M) -5.816,4.12E-01 and 3.85E-01 and 3.49E-01 and 3.26E-01
same,Proline - […] HT-HsProRS - 1000nM MAT379,[6]; Log[Substrate] (M) -6.118,4.73E-01 and 4.43E-01 and 3.95E-01 and 3.89E-01
same,fold lower affinity for PfcProRS than MAT379,[7],"~ 4,500 fold"
same,Kd,"[8]; HsProRS (KD [nM]) mean, substrates, substrate KD, (-)",30600 nM
same,pKd,"[8]; KD of substrate, […] HT-HsProRS, 1000 nM MAT379",4.17

# Reference: paper PMC9403976, “Elucidating the path to Plasmodium prolyl-tRNA synthetase inhibitors that overcome halofuginone resistance” (Nature Communications, 2022)
